# Source: US9517221B2, “(2R)-2-propyloctanoic acid for functional brain disease” (ONO PHARMACEUTICAL CO., LTD., priority 2006, dated 2016)
# System: olfactory bulbectomized rats
# Assay: Hyperemotional reactivity (hyperemotional score) of olfactory bulbectomized rats
# Assay type: in vivo, rat
# Design: key to Hyperemotional score (mean ± S. E.), One day administration, Before administration / Hyperemotional score (mean ± S. E.), One day administration, After administration / Hyperemotional score (mean ± S. E.), Seven days administration, Before administration / Hyperemotional score (mean ± S. E.), Seven days administration, After administration: irritability score per Gomita et al. (1983) criteria
# Conditions: for Hyperemotional score (mean ± S. E.), Seven days administration, After administration: 1 hour to 1 hour 10 minutes after 7 days administration; for Hyperemotional score (mean ± S. E.), Seven days administration, Before administration: before administration of the 7 days administration; for Hyperemotional score (mean ± S. E.), One day administration, After administration: 1 hour to 1 hour 10 minutes after 1 day administration; for Hyperemotional score (mean ± S. E.), One day administration, Before administration: baseline before grouping, 12 animals
# Method: SPF rats (Crlj: WI) were used in the test. The animal for olfactory bulbectomy was anesthetized with pentobarbital sodium (Nembutal R Injection, Dainippon Pharmaceutical, dose: 1 mL/kg (intraperitoneal administration)), and the head was fixed using a brain stereotaxic apparatus (ASI Instruments, Inc., NARISHIGE). After incising the head skin, holes are opened at right and left olfactory bulb regions of the skull using a dental drill (manufactured by MINITOR), and the right and left olfactory bulbs were removed by sucking them using an aspirator connected to a tip-removed oral sonde, and the head skin was stitched thereafter. In this connection, in the case of the animals for sham-operation, anesthesia, brain fixation and head skin incision were carried out in the same manner as in the animals for olfactory bulbectomy, holes are opened at right and left olfactory bulb regions of the skull and the head skin was stitched without carrying out suction removal of the olfactory bulbs. The rats after olfactory bulbectomy were put into a series of five stainless steel cages, each of which was partitioned into two parts with an acrylic board for individual rearing space, and individually reared under a dark condition. The rats were subjected to the following tests of (2) and (3).
# • (a) Sham-operation group (12 animals); • (b) Vehicle control group (12 animals); • (c) 3 mg/kg administration group (12 animals) of (2R)-2-propyloctanoic acid; • (d) 10 mg/kg administration group (12 animals) of (2R)-2-propyloctanoic acid; • (e) 10 mg/kg administration group (12 animals) of Milnacipran hydrochloride. [Drug Administration]
# As shown below, drug solution or vehicle was administered once a day for 8 days, a total of 8 times, at a respective liquid dose of 5 mL/kg. • (a) Sham-operation group: vehicle (0.1% by volume Tween 80) aqueous solution; • (b) Vehicle control group: vehicle (0.1% by volume Tween 80) aqueous solution; • (c) 3 mg/kg administration group of (2R)-2-propyloctanoic acid: a drug solution in which (2R)-2-propyloctanoic acid was prepared to be 0.6 mg/mL with the vehicle; • (d) 10 mg/kg administration group of (2R)-2-propyloctanoic acid: a drug solution in which (2R)-2-propyloctanoic acid was prepared to be 2.0 mg/mL with the vehicle; • (e) 10 mg/kg administration group of milnacipran hydrochloride: a drug solution in which Milnacipran hydrochloride was prepared to be 2.3 mg/mL with the vehicle (Milnacipran itself is included in 2.0 mg/mL). (2) Examination of the Activity for Hyperemotional Reactivity <Evaluation Method>
# Evaluation of the hyperemotional reactivity was carried out (1) before the grouping, (2) from 1 hour to 1 hour and 10 minutes after administration of the 1 day drug administration, (3) before administration of the 7 days administration and (4) from 1 hour to 1 hour and 10 minutes after the administration (a total of 4 times), by scoring the degree of irritability once a rat in accordance with the following evaluation criteria of hyperemotional reactivity (hyperemotional score: prepared based on the method of Gomita et al. (Folia Pharmacologica Japonica, 82, 267, 1983). Additionally, all of the conditions of the evaluation were shot and recorded using a video camera (SSC-DC430, SONY) and handled as reference data.
structure (smiles),measurement,setting,value
CCCCCC[C@@H](CCC)C(=O)O [(2R)-2-propyloctanoic acid],Development of hyperemotionality versus vehicle control group,"1st day and 7th day of the administration, result in words",inhibited development of hyperemotionality
same,"Hyperemotional score (mean ± S. E.), Seven days administration, After administration",dose 3 mg/kg once a day,5.9 ± 1.5
same,"Hyperemotional score (mean ± S. E.), Seven days administration, Before administration",dose 3 mg/kg once a day,6.3 ± 1.0
same,"Hyperemotional score (mean ± S. E.), One day administration, After administration",dose 3 mg/kg,8.8 ± 1.4
same,"Hyperemotional score (mean ± S. E.), One day administration, Before administration",dose 3 mg/kg,20.0 ± 0.0
same,"Hyperemotional score (mean ± S. E.), Seven days administration, After administration",dose 10 mg/kg once a day,4.8 ± 0.8
same,"Hyperemotional score (mean ± S. E.), Seven days administration, Before administration",dose 10 mg/kg once a day,6.7 ± 1.4
same,"Hyperemotional score (mean ± S. E.), One day administration, After administration",dose 10 mg/kg,7.4 ± 0.9
same,"Hyperemotional score (mean ± S. E.), One day administration, Before administration",dose 10 mg/kg,20.0 ± 0.0
